Counter-ions that a name gives are not always drawn. Like-named read-outs stand apart in the source and are kept apart here.
What was measured:
[1] = test system: cardiomyocytes derived from hiPSCs from a LQTS3 patient; assay: cells; details: Homo sapiens, Cardiomyocyte; for IC50: read-out: LQT-IC50 (uM)-Shortening
[2] = test system: normal human induced pluripotent stem cell (hiPSC) cardiomyocyte; details: for WT-Fold Prolongation: APD
[3] = test system: cardiomyocytes derived from hiPSCs from a LQTS3 patient
[4] = target: hERG potassium channel (IKr) (Homo sapiens, UniProt Q12809); assay: Automated patch clamp, hERG (IKr) expressed in CHO cells; details: hERG (IKr) IC50, CHO cells
Chain of hERG potassium channel (IKr) (Q12809 whole entry): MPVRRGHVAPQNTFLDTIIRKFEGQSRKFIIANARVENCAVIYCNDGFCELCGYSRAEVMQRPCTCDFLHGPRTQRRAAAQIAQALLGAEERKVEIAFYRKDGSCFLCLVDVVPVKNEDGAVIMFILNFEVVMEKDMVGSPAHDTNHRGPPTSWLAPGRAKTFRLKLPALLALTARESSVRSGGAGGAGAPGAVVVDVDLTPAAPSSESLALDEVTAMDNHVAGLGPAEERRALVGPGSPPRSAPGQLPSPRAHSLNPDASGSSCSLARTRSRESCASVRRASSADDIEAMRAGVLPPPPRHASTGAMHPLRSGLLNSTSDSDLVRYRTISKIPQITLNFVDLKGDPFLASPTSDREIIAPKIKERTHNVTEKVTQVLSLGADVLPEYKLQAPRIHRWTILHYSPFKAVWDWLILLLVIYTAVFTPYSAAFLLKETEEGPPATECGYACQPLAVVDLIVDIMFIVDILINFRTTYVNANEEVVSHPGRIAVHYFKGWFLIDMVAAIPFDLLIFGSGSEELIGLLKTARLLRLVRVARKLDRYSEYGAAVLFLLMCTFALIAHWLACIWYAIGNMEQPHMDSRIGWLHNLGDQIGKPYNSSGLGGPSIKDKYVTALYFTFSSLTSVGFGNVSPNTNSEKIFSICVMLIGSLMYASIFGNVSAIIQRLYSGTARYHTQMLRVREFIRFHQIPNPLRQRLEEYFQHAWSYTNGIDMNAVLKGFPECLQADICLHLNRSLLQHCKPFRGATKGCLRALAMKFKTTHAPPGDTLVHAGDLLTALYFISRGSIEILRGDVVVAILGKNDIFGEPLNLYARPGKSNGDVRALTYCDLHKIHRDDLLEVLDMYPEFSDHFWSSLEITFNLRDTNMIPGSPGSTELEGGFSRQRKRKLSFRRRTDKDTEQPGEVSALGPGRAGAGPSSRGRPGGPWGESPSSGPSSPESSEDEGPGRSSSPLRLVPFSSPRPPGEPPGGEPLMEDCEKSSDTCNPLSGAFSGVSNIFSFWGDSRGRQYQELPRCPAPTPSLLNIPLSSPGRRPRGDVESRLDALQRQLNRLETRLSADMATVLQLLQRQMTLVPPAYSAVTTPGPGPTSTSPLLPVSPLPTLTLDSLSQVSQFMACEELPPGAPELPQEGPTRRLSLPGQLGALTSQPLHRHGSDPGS

[5] = target: Nav1.5 sodium channel, peak current (INaP) (Homo sapiens, UniProt Q14524, form not given); assay: in vitro; details: Peak Na+ (INaP) IC50
Method: This provided data to investigate the physiology and action of target compounds on individual ion channels. The assay used standardized protocols for culturing and conducting conventional whole cell recording that have been previously developed for both current and voltage-clamp to characterize action potentials using transfected cells. Briefly, the Nav1.5 sodium channel was transfected into HEK293 cells. […] Briefly, cells were plated on 0.1% gelatin-coated 35-mm plastic Petri dishes. […] Data was reported as IC50 values±STD (Table 1).

[6] = read-out: LQT-EC50 (μM) Shortening, LQT-3 cardiomyocytes, AP shortening
[7] = WT cardiomyocytes, AP prolongation
[8] = LQT-3 cardiomyocytes, cessation of beating

Row | Compound | IC50 [1] | WT-Fold Prolongation ([2]; normal hiPSC cardiomyocytes) | LQT-Fold Shortening ([3]; LQT3 cardiomyocytes) | LQT-Cessation Dose ([3]; LQT3 cardiomyocytes) | Cessation of Beating ([2]; normal hiPSC cardiomyocytes) | WT-Prolongation Dose ([2]; normal hiPSC cardiomyocytes) | also measured
1 | Cc1cccc(C)c1OC[C@@H](N)C1CC1.Cl [Compound 60] | 0.11 µM | 2.805 | 1.22 | – | – | – | Cessation of Beating ([2]; human, 5 min): 200 µM; WT-EAD Dose ([2]; human, 5 min): 66 µM; LQT-Cessation Dose ([3]; human, 5 min): 200 µM
2 | Cc1cccc(C)c1OCC(C)N (racemic) [Compound 1, Mexiletine, reference compound] | 1.83 µM | – | – | None | – | – | IC50 [4]: 54 µM; IC50 [5]: 183 µM; WT-EAD Dose ([2]; normal hiPSC cardiomyocytes): 200 µM
3 | CC(N)COC1CCCCC1.Cl (centres unmarked) [Compound 87] | 34.8 µM | None | 1.611 | None | None | None | –
4 | COCCNC(COc1c(C)ccnc1C)c1ccccc1 (centres unmarked) [Compound 122] | – | – | – | – | – | – | EC50 [1, 6]: 46.6 µM; WT-EC50 (μM) Prolongation [2, 7]: Does Not Prolong AP; LQT-Fold Shortening ([3]; LQT-3 cardiomyocytes): 1.188
5 | COCCNC(C)COc1c(C)cccc1C (centres unmarked) [Compound 40, 1-(2,6-dimethylphenoxy)-N-methoxy-ethyl-2-amine] | 2.31 µM | 4.366 | 1.267 | None | None | 32 µM | WT-EAD Dose ([2]; normal hiPSC cardiomyocytes): 66 µM; LQT-Shortening Dose ([3]; LQT3 cardiomyocytes): 7.4 µM
6 | CCCc1ccccc1OCC(C)N (centres unmarked) [Compound 49, 1-(2-Propylphenoxy)propan-2-amine] | 0.85 µM | 1.385 | 1.192 | 133 µM | 200 µM | – | –
7 | Cc1cccc(C)c1OCC(N)c1ccc(C(F)(F)F)cc1 (centres unmarked) [Compound 16, 2-(2,6-dimethylphenoxy)-1-(4-(trifluoromethyl)phenyl)ethanamine] | 1.38 µM | None | 1.480 | 66 µM | 66 µM | None | –
8 | Cc1cccc(C)c1OCC(C)NC(=O)c1ccccc1 (centres unmarked) [Compound 54] | 57.8 µM | None | 1.45 | 133 µM | 66 µM | None | –
9 | Cc1cccc(OCC(O)c2ccccc2)c1C (centres unmarked) [Compound 32, 2-(2,3-dimethylphenoxy)-1-phenylethanol] | 7.53 µM | None | 1.355 | 66 µM | 133 µM | None | –
10 | Cc1cc(C)cc(OC[C@@H](N)C2CC2)c1.Cl [Compound 62] | 1.03 µM | 1.585 | 1.19 | 200 µM | 200 µM | – | WT-EAD Dose ([2]; normal hiPSC cardiomyocytes): 66 µM
11 | Cc1cccc(C)c1OC[C@H](C)N [Compound 2b, (S)-(+)-Mexiletine Hydrochloride, reference compound] | 0.8 µM | – | – | None | – | – | IC50 [4]: 84 µM; IC50 [5]: 129 µM; WT-EAD Dose ([2]; normal hiPSC cardiomyocytes): 200 µM
12 | CCCCNC(COc1cccc(C)c1C)c1ccccc1 (centres unmarked) [Compound 30, 2-(2,3-dimethylphenoxy)-N-butyl-1-phenylethanamine] | 20.2 µM | None | 1.423 | 200 µM | 133 µM | None | –
13 | Cc1ccccc1OCC(N)c1ccc2ccccc2c1 (centres unmarked) [Compound 133] | – | – | – | – | – | – | EC50 [1, 6]: 8.83 µM; WT-EC50 (μM) Prolongation [2, 7]: Does Not Prolong AP; LQT-Fold Shortening ([3]; LQT-3 cardiomyocytes): 1.302; LQT-Cessation Dose [3, 8]: 133 µM
14 | NC(COc1ncccc1C(F)(F)F)c1ccccc1 (centres unmarked) [Compound 96, 1-phenyl-2-((3-(trifluoromethyl)pyridin-2-yl)oxy)ethan-1-amine] | – | 1.163 | 1.3 | None | None | – | EC50 ([1]; read-out: LQT-EC50 (μM) Shortening, pyridyl derivatives): 20.7 µM; WT-Cessation Dose ([2]; pyridyl derivatives): No cessation of beating; WT-EC50 (μM) Prolongation ([2]; pyridyl derivatives): Does Not Prolong AP; LQT-Fold Shortening ([3]; pyridyl derivatives): 1.358; LQT-Shortening Dose ([3]; pyridyl derivatives): 133 µM
15 | Cc1ccc(OCC(N)c2ccccc2)cn1 (centres unmarked) [Compound 114] | – | – | – | – | – | – | EC50 [1, 6]: 67.5 µM; WT-EC50 (μM) Prolongation [2, 7]: Does Not Prolong AP; WT-Cessation Dose (μM) ([2]; WT cardiomyocytes, cessation of beating): No cessation of beating; LQT-Fold Shortening ([3]; LQT-3 cardiomyocytes): 1.233
16 | Cc1cccc(C)c1OCC(NC(=O)c1ccccc1)c1ccccc1 (centres unmarked) [Compound 29, N-(2-(2,6-dimethylphenoxy)-1-phenylethyl)benzamide] | > 0.8 µM | None | 1.64 | None | None | None | –
17 | NC(COc1ccc2ccccc2c1)c1ccccc1 (centres unmarked) [Compound 130] | – | – | – | – | – | – | EC50 [1, 6]: 8.7 µM; WT-EC50 (μM) Prolongation [2, 7]: Does Not Prolong AP; LQT-Fold Shortening ([3]; LQT-3 cardiomyocytes): 1.459; LQT-Cessation Dose [3, 8]: 133 µM
18 | CCCc1ccccc1OCC(N)c1ccccc1 (centres unmarked) [Compound 23, 1-phenyl-2-(2-propylphenoxy)ethanamine] | 0.78 µM | None | 1.32 | 22 µM | 22 µM | None | –
19 | CCc1ccccc1OCC(C)N (centres unmarked) [Compound 50, 1-(2-Ethylphenoxy)propan-2-amine] | 6.01 µM | 1.392 | 1.12 | None | None | – | –
20 | Cc1cccc(C)c1OCC(C)N (racemic) [racemic Mexiletine] | 1.83 µM | – | – | – | – | – | IC50 ([4]; Example 2): 54 µM; IC50 [5]: 183 µM
21 | CCCCNC(C)COc1c(C)cccc1C (centres unmarked) [Compound 39, 1-(2,6-dimethylphenoxy)-N-butylpropan-2-amine] | 0.73 µM | 3.827 | 1.180 | 66 µM | 133 µM | – | WT-EAD Dose ([2]; normal hiPSC cardiomyocytes): 66 µM
22 | Cc1cccc(Cl)c1OC[C@H](C)N [Compound 57, (S)-1-(2-chloro-6-methylphenoxy)propan-2-amine hydrochloride] | 0.19 µM | 3.615 | 1.14 | None | None | – | WT-EAD Dose ([2]; normal hiPSC cardiomyocytes): 200 µM
23 | CC(N)COc1cccc(C(F)(F)F)c1.Cl (centres unmarked) [Compound 85] | 31.3 µM | None | 1.661 | 200 µM | 200 µM | None | –
24 | Cc1cccnc1OCC(C)N (centres unmarked) [Compound 100, 1-(-3-Methyl-pyridin-2-yloxy)propan-2-amine] | – | None | 1.13 | 22 µM | None | None | IC50 [5]: 252 µM
25 | Cc1cc(C)cc(OC[C@H](N)C2CC2)c1.Cl [Compound 63] | 7.5 µM | 1.577 | 1.11 | 200 µM | None | – | WT-EAD Dose ([2]; normal hiPSC cardiomyocytes): 66 µM
26 | Cc1cccc(C)c1OCC(N)c1ccc2ccccc2c1 (centres unmarked) [Compound 131] | – | – | – | – | – | – | EC50 [1, 6]: 4.73 µM; WT-EC50 (μM) Prolongation [2, 7]: Does Not Prolong AP; LQT-Fold Shortening ([3]; LQT-3 cardiomyocytes): 1.309; LQT-Cessation Dose [3, 8]: 133 µM
